Experimental data reported in ChEMBL document CHEMBL5113392, “Novel hybrid pyrrolidinedione-thiazolidinones as potential anticancer agents: Synthesis and biological evaluation” (Eur J Med Chem, 2022).
Activity calls are given as the source filed them. The calls are words filed in the database; no cut-off is given here.

Key:
[1] = system: Jurkat; experiment: Induction of apoptosis in human Jurkat cells assessed as decrease in Bcl-2 level at 3.5 uM for 24 hrs by Western blot analysis; assay type: functional, cell-based
[2] = system: Jurkat; experiment: Induction of DNA damage in human Jurkat cells assessed as olive tail moment at 3.5 uM incubated for 24 hrs by alkaline Comet assay; assay type: functional
[3] = system: Jurkat; experiment: Induction of DNA damage in human Jurkat cells assessed as proapoptotic inter-nucleosomal fragmentation at 3.5 uM for 24 hrs by Agarose gel electrophoresis analysis; assay type: functional, cell-based
[4] = system: Jurkat; experiment: Induction of apoptosis in human Jurkat cells assessed as increase in cleaved capase-3 level at 3.5 uM for 24 hrs by Western blot analysis; assay type: functional, cell-based
[5] = system: UO-31; experiment: Anticancer activity against human UO-31 cells assessed as inhibition of cell growth at 10 uM incubated for 48 hrs by SRB assay; assay type: functional; details: UO-31, 48 h, values are per cent of control
[6] = system: NCI-H522; experiment: Anticancer activity against human NCI-H522 cells assessed as inhibition of cell growth at 10 uM incubated for 48 hrs by SRB assay; assay type: functional; details: NCI-H522, 48 h, values are per cent of control
[7] = system: Lymphocyte; experiment: Induction of DNA damage in mitogen activated human peripheral blood lymphocytes assessed as tail DNA at 3.5 uM incubated for 24 hrs by alkaline Comet assay; assay type: toxicity, cell-based
[8] = system: TK-10; experiment: Anticancer activity against human TK-10 cells assessed as growth inhibition incubated for 48 hrs by SRB assay; assay type: functional
[9] = system: Jurkat; experiment: Induction of DNA damage in human Jurkat cells assessed as tail DNA at 3.5 uM incubated for 24 hrs by alkaline Comet assay; assay type: functional
[10] = system: Lymphocyte; experiment: Induction of DNA damage in mitogen activated human peripheral blood lymphocytes assessed as olive tail moment at 3.5 uM incubated for 24 hrs by alkaline Comet assay; assay type: toxicity, cell-based
[11] = system: OVCAR-3; experiment: Anticancer activity against human OVCAR-3 cells assessed as inhibition of cell growth at 10 uM incubated for 48 hrs by SRB assay; assay type: functional; details: OVCAR-3, 48 h, values are per cent of control
[12] = system: Jurkat; experiment: Induction of apoptosis in human Jurkat cells assessed as increase in Bax level at 3.5 uM for 24 hrs by Western blot analysis; assay type: functional, cell-based
[13] = system: Lymphocyte; experiment: Induction of DNA damage in mitogen activated human peripheral blood lymphocytes assessed as olive tail moment at 1.5 uM incubated for 24 hrs by alkaline Comet assay; assay type: toxicity, cell-based
[14] = system: Salmon testes DNA; experiment: Binding affinity to double stranded salmon sperm DNA assessed as increase in DNA oxidation level by measuring net change in absorbance at 10 uM incubated for 1 hr by UV based spectroscopic method; assay type: nucleic-acid assay; details: Salmo salar
[15] = system: Jurkat; experiment: Induction of DNA damage in human Jurkat cells assessed as olive tail moment at 1.5 uM incubated for 24 hrs by alkaline Comet assay; assay type: functional
[16] = system: Jurkat; experiment: Induction of DNA damage in human Jurkat cells assessed as tail DNA at 1.5 uM incubated for 24 hrs by alkaline Comet assay; assay type: functional
[17] = system: HCT-116; experiment: Induction of DNA damage in human HCT-116 cell lysate assessed as olive tail moment at 1 uM incubated for 2 hrs in dark by Comet assay; assay type: functional
[18] = system: Jurkat; experiment: Induction of apoptosis in human Jurkat cells assessed as decrease in Bcl-2 level at 1.5 uM for 24 hrs by Western blot analysis; assay type: functional, cell-based
[19] = system: Lymphocyte; experiment: Induction of DNA damage in mitogen activated human peripheral blood lymphocytes assessed as tail DNA at 1.5 uM incubated for 24 hrs by alkaline Comet assay; assay type: toxicity, cell-based
[20] = system: 786-0; experiment: Anticancer activity against human 786-0 cells assessed as lethality incubated for 48 hrs by SRB assay; assay type: functional; details: read-out: LC50 (the source's name)
[21] = system: A549; experiment: Anticancer activity against human A549 cells assessed as growth inhibition incubated for 48 hrs by SRB assay; assay type: functional
[22] = system: DU-145; experiment: Anticancer activity against human DU-145 cells assessed as total growth inhibition incubated for 48 hrs by SRB assay; assay type: functional
[23] = system: KM12; experiment: Anticancer activity against human KM12 cells assessed as total growth inhibition incubated for 48 hrs by SRB assay; assay type: functional
[24] = system: CAKI-1; experiment: Anticancer activity against human CAKI-1 cells assessed as inhibition of cell growth at 10 uM incubated for 48 hrs by SRB assay; assay type: functional; details: CAKI-1, 48 h, values are per cent of control
[25] = system: KM12; experiment: Anticancer activity against human KM12 cells assessed as inhibition of cell growth at 10 uM incubated for 48 hrs by SRB assay; assay type: functional; details: KM12, 48 h, values are per cent of control
[26] = system: Salmon testes DNA; experiment: Binding affinity to single stranded salmon sperm DNA assessed as increase in DNA oxidation level by measuring net change in absorbance at 10 uM incubated for 1 hr by UV based spectroscopic method; assay type: nucleic-acid assay; details: Salmo salar
[27] = system: Jurkat; experiment: Induction of apoptosis in human Jurkat cells assessed as increase in Bax level at 1.5 uM for 24 hrs by Western blot analysis; assay type: functional, cell-based
[28] = system: HCT-116; experiment: Induction of DNA damage in human HCT-116 cells assessed as olive tail moment at 1 uM incubated for 2 hrs by alkaline Comet assay; assay type: functional
[29] = system: SK-MEL-5; experiment: Anticancer activity against human SK-MEL-5 cells assessed as lethality incubated for 48 hrs by SRB assay; assay type: functional; details: read-out: LC50 (the source's name)
[30] = system: Jurkat; experiment: Induction of DNA damage in human Jurkat cells assessed as proapoptotic inter-nucleosomal fragmentation at 1.5 uM for 24 hrs by Agarose gel electrophoresis analysis; assay type: functional, cell-based
[31] = system: ACHN; experiment: Anticancer activity against human ACHN cells assessed as lethality incubated for 48 hrs by SRB assay; assay type: functional; details: read-out: LC50 (the source's name)
[32] = system: Jurkat; experiment: Induction of apoptosis in human Jurkat cells assessed as increase in cleaved capase-3 level at 1.5 uM for 24 hrs by Western blot analysis; assay type: functional, cell-based
[33] = system: SK-MEL-5; experiment: Anticancer activity against human SK-MEL-5 cells assessed as total growth inhibition incubated for 48 hrs by SRB assay; assay type: functional
[34] = system: HCT-116; experiment: Induction of DNA damage in human HCT-116 cells assessed as tail DNA at 1 uM incubated for 2 hrs by alkaline Comet assay; assay type: functional
[35] = system: OVCAR-5; experiment: Anticancer activity against human OVCAR-5 cells assessed as lethality incubated for 48 hrs by SRB assay; assay type: functional; details: read-out: LC50 (the source's name)
[36] = system: HCT-116; experiment: Induction of DNA damage in human HCT-116 […] assessed as tail DNA at 1 uM incubated for 2 hrs in dark by Comet assay; assay type: functional

Question: Which Activity [1] does the source give for O=C1CC(N2C(=O)/C(=C/C(Cl)=C/c3ccc([N+](=O)[O-])cc3)SC2=S)C(=O)N1c1ccc(Cl)cc1 (stereo not drawn) here?
Answer: Active

Question: What about the Activity [2] of the same compound?
Answer: 18.1%

Question: What about the Activity [3] of the same compound?
Answer: Active

Question: And the Activity [4]?
Answer: Active

Question: And the growth, % of control at 10 µM [5]?
Answer: -42.9%

Question: What about the growth, % of control at 10 µM [6] of the same compound?
Answer: -26.4%

Question: And the Activity [7]?
Answer: 4.25%

Question: What about the GI50 [8] of the same compound?
Answer: 2790 nM

Question: What about the Activity [9] of the same compound?
Answer: 48.35%

Question: And the Activity [10]?
Answer: 0.86%

Question: What about the growth, % of control at 10 µM [11] of the same compound?
Answer: -35.4%

Question: What about the Activity [12] of the same compound?
Answer: Active

Question: With O=C1CC(N2C(=O)/C(=C/C(Cl)=C/c3ccc([N+](=O)[O-])cc3)SC2=S)C(=O)N1c1ccc(O)cc1 (stereo not drawn) as the compound, how does the Activity [13] read?
Answer: 0.28%

Question: What about the Activity [14] of the same compound?
Answer: Active

Question: And the Activity [15]?
Answer: 8.63%

Question: What about the Activity [16] of the same compound?
Answer: 53.4%

Question: What about the Activity [17] of the same compound?
Answer: 3.05%

Question: And the Activity [18]?
Answer: Active

Question: What about the Activity [19] of the same compound?
Answer: 2.92%

Question: And the CC50 [20]?
Answer: 25.5 µM

Question: And the GI50 [21]?
Answer: 3.11 µM

Question: What about the TGI [22] of the same compound?
Answer: 3.37 µM

Question: What about the TGI [23] of the same compound?
Answer: 4.64 µM

Question: And the growth, % of control at 10 µM [24]?
Answer: -71.4%

Question: And the growth, % of control at 10 µM [5]?
Answer: -75.2%

Question: And the growth, % of control at 10 µM [25]?
Answer: -72.4%

Question: And the Activity [26]?
Answer: Active

Question: What about the Activity [27] of the same compound?
Answer: Active

Question: What about the Activity [28] of the same compound?
Answer: 9.84%

Question: What about the CC50 [29] of the same compound?
Answer: 6.97 µM

Question: And the GI50 [8]?
Answer: 1920 nM

Question: What about the Activity [30] of the same compound?
Answer: Active

Question: What about the CC50 [31] of the same compound?
Answer: 5.59 µM

Question: What about the Activity [32] of the same compound?
Answer: Active

Question: What about the TGI [33] of the same compound?
Answer: 3.66 µM

Question: What about the Activity [34] of the same compound?
Answer: 26.5%

Question: And the CC50 [35]?
Answer: 7.16 µM

Question: What about the Activity [36] of the same compound?
Answer: 13.1%
